In ChEMBL document CHEMBL1201862, “PubChem BioAssay data set” (2004):
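In this assay, cells in 96-well plates receive the compound at five concentrations for 48 hours. Endpoints are linearly interpolated between the surrounding concentrations. At the GI50, growth is halved.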 Active and inactive are the calls of the source. Cut-off read from the data, not from the text of the source: active = GI50 up to about 1.1 µM and inactive = higher.

What was measured:
Test in all cases: DTP human tumour cell line panel, 48 h
NCI-H226 = tested on: NCI-H226
MDA-N = tested on: MDA-N
CAKI-1 = tested on: CAKI-1
A549 = tested on: A549
OVCAR-8 = tested on: OVCAR-8
SF-268 = tested on: SF-268
DU-145 = tested on: DU-145
UO-31 = tested on: UO-31
OVCAR-4 = tested on: OVCAR-4
HCT-116 = tested on: HCT-116
Malme-3M = tested on: Malme-3M
UACC-62 = tested on: UACC-62
SK-MEL-5 = tested on: SK-MEL-5
SK-MEL-28 = tested on: SK-MEL-28
EKVX = tested on: EKVX
HCT-15 = tested on: HCT-15
786-0 = tested on: 786-0
SK-MEL-2 = tested on: SK-MEL-2
HOP-62 = tested on: HOP-62
COLO 205 = tested on: COLO 205

| Compound | GI50 (NCI-H226) | GI50 (MDA-N) | GI50 (CAKI-1) | GI50 (A549) | GI50 (OVCAR-8) | GI50 (SF-268) | GI50 (DU-145) | GI50 (UO-31) | GI50 (OVCAR-4) | GI50 (HCT-116) | GI50 (Malme-3M) | GI50 (UACC-62) | GI50 (SK-MEL-5) | GI50 (SK-MEL-28) | GI50 (EKVX) | GI50 (HCT-15) [µM] | GI50 (786-0) | GI50 (SK-MEL-2) | GI50 (HOP-62) | GI50 (COLO 205) |
| --- | --- | --- | --- | --- | --- | --- | --- | --- | --- | --- | --- | --- | --- | --- | --- | --- | --- | --- | --- | --- |
| O=C(NNC(=O)c1ccccc1Cl)c1ccccc1O | 3.42 µM (inactive) | > 100 µM (inactive) | 41.3 µM (inactive) | 56.2 µM (inactive) | 19.8 µM (inactive) | 10.6 µM (inactive) | > 100 µM (inactive) | 27.7 µM (inactive) | > 100 µM (inactive) | 35.8 µM (inactive) | 4.24 µM (inactive) | 35.7 µM (inactive) | > 100 µM (inactive) | > 100 µM (inactive) | 16.3 µM (inactive) | 21.7 | 87.1 µM (inactive) | 53.7 µM (inactive) | 31.8 µM (inactive) | 35.2 µM (inactive) |
| COc1cc2oc(-c3ccc4c(c3)OCO4)c(OC)c(=O)c2c(OC)c1OC | > 100 µM (inactive) | > 100 µM (inactive) | 19.1 µM (inactive) | > 100 µM (inactive) | 53.3 µM (inactive) | 27.9 µM (inactive) | > 100 µM (inactive) | > 100 µM (inactive) | > 100 µM (inactive) | > 100 µM (inactive) | > 100 µM (inactive) | > 100 µM (inactive) | 51.5 µM (inactive) | > 100 µM (inactive) | 66.5 µM (inactive) | > 100 | 94 µM (inactive) | > 100 µM (inactive) | 27.4 µM (inactive) | > 100 µM (inactive) |
| Cc1nnc2sc(Cl)nn12 | 28.6 µM (inactive) | 20.2 µM (inactive) | 21 µM (inactive) | 26.1 µM (inactive) | 32.9 µM (inactive) | – | 34.4 µM (inactive) | 29.6 µM (inactive) | 16.8 µM (inactive) | 8.95 µM (inactive) | 22.1 µM (inactive) | 4.51 µM (inactive) | 12.6 µM (inactive) | 19.4 µM (inactive) | 24.9 µM (inactive) | 19.3 | 26.5 µM (inactive) | 24.1 µM (inactive) | 38 µM (inactive) | 14.5 µM (inactive) |
| Cc1cc(S(=O)(=O)Nc2nc(N)n(-c3cnc4ccccc4n3)n2)c(S)cc1Cl | 43.7 µM (inactive) | > 100 µM (inactive) | 95.3 µM (inactive) | > 100 µM (inactive) | > 100 µM (inactive) | 85.3 µM (inactive) | > 100 µM (inactive) | > 100 µM (inactive) | > 100 µM (inactive) | > 100 µM (inactive) | > 100 µM (inactive) | 49.7 µM (inactive) | > 100 µM (inactive) | > 100 µM (inactive) | > 100 µM (inactive) | > 100 | > 100 µM (inactive) | > 100 µM (inactive) | 69.5 µM (inactive) | > 100 µM (inactive) |
| CC(=O)OC(C)(C)/N=N/c1ccc(Br)cc1 | 2.96 µM (inactive) | 0.178 µM (active) | 16.7 µM (inactive) | 6.04 µM (inactive) | 17.5 µM (inactive) | 17.4 µM (inactive) | 54.2 µM (inactive) | 0.425 µM (active) | 9.18 µM (inactive) | 0.851 µM (active) | > 43.1 µM (inactive) | 0.052 µM (active) | 0.209 µM (active) | 3.01 µM (inactive) | 9.38 µM (inactive) | 0.977 | 22.9 µM (inactive) | > 85.7 µM (inactive) | 34.3 µM (inactive) | 0.52 µM (active) |
| COc1cc2c3c([nH]c2c(OC)c1OC)CCN(Cc1ccccc1)C3 | 20.9 µM (inactive) | 16.9 µM (inactive) | 0.787 µM (active) | 86.7 µM (inactive) | > 100 µM (inactive) | 62.5 µM (inactive) | > 100 µM (inactive) | – | 64.7 µM (inactive) | 33.9 µM (inactive) | 16.6 µM (inactive) | 32.3 µM (inactive) | 18.9 µM (inactive) | 21.6 µM (inactive) | > 100 µM (inactive) | 31.9 | 22.3 µM (inactive) | 22.6 µM (inactive) | 93.5 µM (inactive) | 17 µM (inactive) |
| O=C1NC(=S)NC(=O)C1C(c1ccc(Cl)cc1)C1C(=O)NC(=S)NC1=O.c1ccncc1 | > 100 µM (inactive) | > 100 µM (inactive) | > 100 µM (inactive) | > 100 µM (inactive) | > 100 µM (inactive) | – | > 100 µM (inactive) | > 100 µM (inactive) | > 100 µM (inactive) | > 100 µM (inactive) | 60.8 µM (inactive) | > 100 µM (inactive) | > 100 µM (inactive) | > 100 µM (inactive) | 86.1 µM (inactive) | > 100 | > 100 µM (inactive) | > 100 µM (inactive) | > 100 µM (inactive) | > 100 µM (inactive) |
| COC1(OC)c2no[n+]([O-])c2C(OC)(OC)c2c1no[n+]2[O-] | 24.5 µM (inactive) | 19.6 µM (inactive) | 37.8 µM (inactive) | 23.6 µM (inactive) | 13.4 µM (inactive) | 25.7 µM (inactive) | 28.3 µM (inactive) | 28.2 µM (inactive) | 21.9 µM (inactive) | 11.1 µM (inactive) | 14.4 µM (inactive) | 11.2 µM (inactive) | 14.9 µM (inactive) | 15.7 µM (inactive) | 14.7 µM (inactive) | 22 | 18.5 µM (inactive) | 21.1 µM (inactive) | 18.4 µM (inactive) | 12.9 µM (inactive) |
| COc1ccc2c(c1)C1Oc3ccccc3CC1CO2 (stereo not drawn) | > 100 µM (inactive) | 37.6 µM (inactive) | 56.8 µM (inactive) | 55.3 µM (inactive) | 83.9 µM (inactive) | > 100 µM (inactive) | > 100 µM (inactive) | 22.3 µM (inactive) | 43.9 µM (inactive) | 44.7 µM (inactive) | 54 µM (inactive) | 98.2 µM (inactive) | 32.6 µM (inactive) | – | 47.2 µM (inactive) | 34.1 | 47.4 µM (inactive) | 21.5 µM (inactive) | > 100 µM (inactive) | 53.1 µM (inactive) |
| CC1(C)[C@H]2CC[C@]1(C)[C@H](OC(=O)NNC(=O)O[C@@H]1C[C@@H]3CC[C@@]1(C)C3(C)C)C2 | 16.7 µM (inactive) | 11.6 µM (inactive) | 15.5 µM (inactive) | 10.4 µM (inactive) | – | 15.6 µM (inactive) | 16.3 µM (inactive) | 15 µM (inactive) | 11.4 µM (inactive) | 10.9 µM (inactive) | 16.1 µM (inactive) | 17.4 µM (inactive) | 12.6 µM (inactive) | 24.3 µM (inactive) | 12.6 µM (inactive) | 12.5 | 17.8 µM (inactive) | 16.8 µM (inactive) | 14.9 µM (inactive) | 12.3 µM (inactive) |
| O=c1[nH]nc(Cc2ccc(Cl)cc2)n1Nc1ccccc1 | > 100 µM (inactive) | > 100 µM (inactive) | > 100 µM (inactive) | > 100 µM (inactive) | > 100 µM (inactive) | – | 4.94 µM (inactive) | > 100 µM (inactive) | > 100 µM (inactive) | > 100 µM (inactive) | > 100 µM (inactive) | > 100 µM (inactive) | > 100 µM (inactive) | > 100 µM (inactive) | > 100 µM (inactive) | > 100 | 73.6 µM (inactive) | > 100 µM (inactive) | 79.6 µM (inactive) | > 100 µM (inactive) |
| Cc1ccc(C(=O)N/N=C(\N=N\c2cccc(Cl)c2)c2ccc(N(CCC#N)CCC#N)cc2C)cc1 | > 100 µM (inactive) | > 100 µM (inactive) | > 100 µM (inactive) | > 100 µM (inactive) | 79.4 µM (inactive) | – | > 100 µM (inactive) | > 100 µM (inactive) | > 100 µM (inactive) | > 100 µM (inactive) | > 100 µM (inactive) | > 100 µM (inactive) | > 100 µM (inactive) | > 100 µM (inactive) | > 100 µM (inactive) | > 100 | 82 µM (inactive) | > 100 µM (inactive) | > 100 µM (inactive) | > 100 µM (inactive) |
| Nc1nc(O)nc2snnc12 | > 36.1 µM (inactive) | 8.28 µM (inactive) | 1.77 µM (inactive) | > 100 µM (inactive) | 5.71 µM (inactive) | 5.04 µM (inactive) | 16.9 µM (inactive) | 3.99 µM (inactive) | > 53.7 µM (inactive) | 7.89 µM (inactive) | 8.65 µM (inactive) | 7.26 µM (inactive) | > 74.3 µM (inactive) | 6.27 µM (inactive) | > 100 µM (inactive) | > 89.7 | 6.38 µM (inactive) | 1.75 µM (inactive) | 8.07 µM (inactive) | > 100 µM (inactive) |
| COc1cc2c(cc1OC)C(=O)/C(=C/c1ccc(Cl)cc1)CC2 | > 10 µM (inactive) | > 10 µM (inactive) | > 10 µM (inactive) | > 10 µM (inactive) | > 10 µM (inactive) | > 10 µM (inactive) | > 10 µM (inactive) | > 10 µM (inactive) | > 10 µM (inactive) | > 10 µM (inactive) | > 10 µM (inactive) | > 10 µM (inactive) | > 10 µM (inactive) | > 10 µM (inactive) | > 10 µM (inactive) | > 10 | > 10 µM (inactive) | > 10 µM (inactive) | > 10 µM (inactive) | > 10 µM (inactive) |
| CCN1/C(=C/c2ccc3ccccc3[n+]2CC)C=Cc2ccccc21 | 1.66 µM (inactive) | 0.39 µM (active) | 10 µM (inactive) | 0.764 µM (active) | 0.555 µM (active) | 1.27 µM (inactive) | 0.867 µM (active) | 3.09 µM (inactive) | 0.617 µM (active) | 0.509 µM (active) | 1.39 µM (inactive) | 0.767 µM (active) | 0.329 µM (active) | 1.15 µM (inactive) | 1.72 µM (inactive) | 4.89 | 2.32 µM (inactive) | 0.687 µM (active) | 0.805 µM (active) | 0.19 µM (active) |
